Test system: HT-29
Test: Cellular assay (checkpoint abrogation), phospho-Histone H3
Type: cell-based
Settings: Homo sapiens; HT-29 cells, 20 nM SN-38 for 16 h, then 300 nM nocodazole plus compound for 24 h; phospho-Histone H3 levels; read-out: EC50 in the assay described in EXAMPLE ii
Description: Compounds are tested in a cellular assay using the human colorectal adenocarcinoma derived cell line HT-29 (ATCC HTB-38).
The cell line is maintained in DMEM/F12 (1:1) media (Invitrogen Gibco, #31331) supplemented with 10% FCS at 37° C. in a 5% CO2 humidified incubator.
Cells are seeded in 96-well plates at 30,000 cells/well and after 24 h they are exposed to 20 nM SN-38 in 0.4% DMSO. One column of 8 wells on each plate was used to generate a maximum signal control. These cells are treated with 0.4% DMSO without SN-38. Cells are grown for a further 16 h, then the media containing DMSO plus or minus SN-38 is removed and replaced with media containing 300 nM nocodazole alone (to determine baseline) or in combination with ten concentrations of chk1 inhibitor (final DMSO concentration is 0.4%). Cells are grown for a further 24 h. The media is removed and replaced with 50 μl lysis buffer containing protease inhibitors and phosphatase inhibitors. This buffer contains detergent to bring about cellular disruption. […] Following the transfer of lysate to the MSD plate, Histone H3 in the lysate is captured on the coated antibody by incubation at room temperature for 2 h. Following the capture step the plate is washed and then incubated with an antibody to phosphorylated Histone H3 which is conjugated with a Sulfo-Tag. This tag gives a signal when in proximity to the electrode on the base of the MSD plate. Binding the tagged antibody to the captured protein allow detection on a MSD reader.
EC50 values are calculated using the XLfit software package (version 2.0.5) or Graphpad Prism, (version 3.03) fitting a sigmoidal curve with a variable slope.

Row | Compound | EC50 [µM]
1 | CN1CCC(c2ccc(-c3cnc4[nH]c5cnc(C#N)cc5c4c3)cc2)CC1 [Example 1, 3-[4-(1-Methyl-piperidin-4-yl)-phenyl]-9H-dipyrido[2,3-b;4′,3′-d]pyrrole-6-carbonitrile] | < 10
2 | Cn1ccc(-c2cnc3[nH]c4cnc(C#N)cc4c3c2)n1 [Example 80, 3-(1-Methyl-1H-pyrazol-3-yl)-9H-dipyrido[2,3-b;4′,3′-d]pyrrole-6-carbonitrile] | < 10
3 | N#Cc1cc2c(cn1)[nH]c1ncc(C#CC3CCCNC3)cc12 (centres unmarked) [Example 119, 3-Piperidin-3-ylethynyl-9H-dipyrido[2,3-b;4′,3′-d]pyrrole-6-carbonitrile] | < 10
4 | CN1CCN(c2ccc(-c3cnc4[nH]c5cnc(C#N)cc5c4c3)cc2)CC1 [Example 125, 3-[4-(4-Methyl-piperazin-1-yl)-phenyl]-9H-dipyrido[2,3-b;4′,3′-d]pyrrole-6-carbonitrile] | < 10
5 | N#Cc1cc2c(cn1)[nH]c1ncc(-c3cnn(CCN4CCOCC4)c3)cc12 [Example 127, 3-[1-(2-Morpholin-4-yl-ethyl)-1H-pyrazol-4-yl]-9H-dipyrido[2,3-b;4′,3′-d]pyrrole-6-carbonitrile] | < 10
6 | CC(C)Oc1ccc(-c2cnc3[nH]c4cnc(C#N)cc4c3c2)cc1 [Example 135, 3-(4-Isopropoxy-phenyl)-9H-dipyrido[2,3-b;4′,3′-d]pyrrole-6-carbonitrile] | < 10
7 | CC(=O)Nc1cccc(-c2cnc3[nH]c4cnc(C#N)cc4c3c2)c1 [Example 138, N-[3-(6-Cyano-9H-dipyrido[2,3-b;4′,3′-d]pyrrol-3-yl)-phenyl]-acetamide] | < 10
8 | N#Cc1cc2c(cn1)[nH]c1ncc(-c3ccc(CO)cc3)cc12 [Example 157, 3-(4-Hydroxymethyl-phenyl)-9H-dipyrido[2,3-b;4′,3′-d]pyrrole-6-carbonitrile] | < 10
9 | N#Cc1cc2c(cn1)[nH]c1ncc(-c3cccs3)cc12 [Example 160, 3-Thiophen-2-yl-9H-dipyrido[2,3-b;4′,3′-d]pyrrole-6-carbonitrile] | < 10
10 | N#Cc1cc2c(cn1)[nH]c1ncc(-c3cccc(N)c3)cc12 [Example 166, 3-(3-Amino-phenyl)-9H-dipyrido[2,3-b;4′,3′-d]pyrrole-6-carbonitrile] | < 10

More lines, now with the values ahead:

Row | EC50 [µM] | Compound
11 | < 10 | COc1ccc(-c2cnc3[nH]c4cnc(C#N)cc4c3c2)cc1OC [Example 176, 9H-dipyrido[2,3-b;4′,3′-d]pyrrole-6-carbonitrile]
12 | < 10 | CC(=O)Nc1ccc(-c2cnc3[nH]c4cnc(C#N)cc4c3c2)cc1 [Example 186, N-[4-(6-Cyano-9H-dipyrido[2,3-b;4′,3′-d]pyrrol-3-yl)-phenyl]-acetamide]
13 | < 10 | CS(=O)(=O)c1cccc(-c2cnc3[nH]c4cnc(C#N)cc4c3c2)c1 [Example 188, 3-(3-Methanesulfonyl-phenyl)-9H-dipyrido[2,3-b;4′,3′-d]pyrrole-6-carbonitrile]
14 | < 10 | CN(C)S(=O)(=O)c1cccc(-c2cnc3[nH]c4cnc(C#N)cc4c3c2)c1 [Example 190, 3-(6-Cyano-9H-dipyrido[2,3-b;4′,3′-d]pyrrol-3-yl)-N,N-dimethyl-benzenesulfonamide]
15 | < 10 | N#Cc1cc2c(cn1)[nH]c1ncc(Cl)cc12 [Example 214, 3-Chloro-9H-dipyrido[2,3-b;4′,3′-d]pyrrole-6-carbonitrile]
16 | < 10 | c1cn(-c2cc3c(cn2)[nH]c2ncc(-c4ccc(CN5CCCCC5)cc4)cc23)cn1 [Example 366, 3-(4-Piperidin-1-ylmethyl-phenyl)-6-(1H-imidazol-1-yl)-9H-dipyrido[2,3-b;4′,3′-d]pyrrole]
17 | < 10 | Cn1nncc1-c1cc2c(cn1)[nH]c1ncc(-c3ccc(CN4CCCCC4)cc3)cc12 [Example 368, 6-(1-Methyl-1H-1,2,3-triazol-5-yl)-3-(4-piperidin-1-ylmethyl-phenyl)-9H-dipyrido[2,3-b;4′,3′-d]pyrrole]

— US9216980B2, “Methods of use of diazacarbazoles for treating cancer” (Genentech, Inc., priority 2008, dated 2015)
